Measured values taken from patent publication US6890708B2, “Method for improving the quality of sperm for artificial insemination of animals” (priority 2000, dated 2005).
Where two headings read alike, the source gives them in different places.

Experiments:
[1] = system: Polymorphonuclear Neutrophils (PMN); test: In vitro phagocytosis of boar sperm by PMN (phagocytosis assay); assay type: cell-based, pig; settings: for % of phagocytosed sperm: Exp. 1; for inhibition at 200 µM / inhibition at 500 µM / inhibition at 1000 µM / inhibition at 2000 µM: Sus scrofa, Polymorphonuclear neutrophil, read-out: % inhibition (percentage decrease of phagocytosis relative to control)
Description: Tyrode's medium was used as described as “standard Tyrode's medium” in […] et al. ([…], Harrison, R A P, Miller, N G A, Topper, E K, and Woelders, H, 1998, Enhanced Binding of Zona Pellucida Proteins to the Acrosomal Region of Intact Boar Spermatozoa in Response to Fertilizing Conditions: A Flow Cytometric Study. […] Serum was prepared from blood collected from 11 primiparous sows, pooled, and frozen in aliquots at -80° C. Per experiment, 20 ml peripheral blood of a single Dutch Landrace sow (each experiment a different sow) was collected in heparinized vacutainers (Venoject, Omnilabo, Breda, The Netherlands). The peripheral blood was subsequently diluted with an equal volume of phosphate buffered saline (PBS). […] The supernatant, including the mononuclear cells at the interface, was removed. The pellet was resuspended in 2 ml of ice-cold distilled water to lyse the erythrocytes. […] The PMNs were pelleted by centrifugation for 10 min at 400×g and the lysis procedure was repeated. […] All cell suspensions were pooled together, mixed well, and subjected to centrifugation. The PMN were resuspended in TM-s with inactivated complement, and the cell concentration was determined using a hemocytometer. The PMN preparation was stored overnight at 4° C. […] The viability, assessed by trypan blue exclusion, was >98%. Semen was obtained from Dutch A.I. stations. Per experiment, semen was used from a single Yorkshire breeding boar (each experiment a different boar). At the AI-station, the semen was diluted to a concentration of approximately 30×10^6 cells/ml in Beltsville Thawing Solution (BTS) (Johnson et al., 1988). The diluted semen was stored at 17° C. for up to 48 hours, until the diluted semen sample was used. […] Aliquots of 80 μl of the PMN suspension (see, PMN isolation and preparation of PMNs) in TM or TM-s, with either intact or inactivated complement, were transferred to a 96-well polystyrene microtest plate. […] The samples were incubated with gentle swirling on a test plate shaker. […] The heparin facilitates dissociation of agglutinated PMNs. The samples were thoroughly mixed, left for 15 min., and mixed again. […] The frozen-thawed semen was taken from a large stock of semen from one ejaculate and washed 3 times in PBS prior to use. […] The mounts enabled observation and counting of fluorescently labeled spermatozoa inside and outside the phagocytes. By focusing at different levels in the mount, spermatozoa that were located above or below the PMN could be distinguished from those that were phagocytosed. In many PMNs that had ingested a spermatozoon, the presence of the sperm nucleus or tail caused a conspicuous change of the shape of the PMN. Two hundred spermatozoa were evaluated and classified as inside or outside the PMN (i.e., phagocytosed or not phagocytosed). The same fixed mounts were used to assess the acrosome morphology of the non-phagocytosed spermatozoa at the moment of fixation.

[2] = system: boar spermatozoa; test: Sperm viability in vitro (motility, acrosome morphology), Example I; assay type: cell-based, pig
[3] = system: sows; test: Example III Series 2: embryos and accessory sperm after insemination of sows; assay type: in vivo, pig
Description: Series 2: Batches of sows (parity 2-13) received hCG at 84 hours after weaning. The sows were inseminated at 16 hours after hCG administration (on average 26 hours, ranging from 21-28 hours, before ovulation as observed by transrectal ultrasonography) or inseminated at 4 hours after ovulation. […] The sows were slaughtered at 115 (112-120) hours after ovulation. The embryos were flushed, examined morphologically, and the number of accessory sperm were counted.

[4] = Exp. 2, 0.2 mM, without pre-incubation, 15 min
[5] = Exp. 2, 0.2 mM, without pre-incubation, 30 min
[6] = Exp. 2, 0.2 mM, without pre-incubation, 60 min
[7] = Exp. 2, 0.5 mM, after pre-incubation, 15
[8] = Exp. 2, 0.5 mM, after pre-incubation, 30
[9] = Exp. 2, 0.5 mM, after pre-incubation, 60
[10] = Exp. 2, 0.5 mM, without pre-incubation, 15 min
[11] = Exp. 2, 0.5 mM, without pre-incubation, 30 min
[12] = Exp. 2, 0.5 mM, without pre-incubation, 60 min
[13] = Exp. 2, 1 mM, after pre-incubation, 15
[14] = Exp. 2, 1 mM, after pre-incubation, 30
[15] = Exp. 2, 1 mM, after pre-incubation, 60
[16] = Exp. 2, 1 mM, without pre-incubation, 15 min
[17] = Exp. 2, 1 mM, without pre-incubation, 30 min
[18] = Exp. 2, 1 mM, without pre-incubation, 60 min
[19] = Exp. 2, 2 mM, after pre-incubation, 15
[20] = Exp. 2, 2 mM, after pre-incubation, 30
[21] = Exp. 2, 2 mM, after pre-incubation, 60
[22] = Exp. 2, 2 mM, without pre-incubation, 15 min
[23] = Exp. 2, 2 mM, without pre-incubation, 30 min
[24] = Exp. 2, 2 mM, without pre-incubation, 60 min
[25] = Exp. 3, 1 mM, pre-incubation of sperm 30 min. at 38° C., 15 min
[26] = Exp. 3, 1 mM, pre-incubation of sperm 30 min. at 38° C., 30 min
[27] = Exp. 3, 1 mM, pre-incubation of sperm 30 min. at 38° C., 60 min

## Cn1c(=O)c2c(ncn2C)n(C)c1=O [caffeine, 1,3,7-Trimethylxanthine]
[1]
  phagocytosis of sperm by PMN in vitro, in words: decreased
[1]; 1 mM, without pre-incubation, 1st value column, head not printed
  % of phagocytosed sperm: 20%
[1]; 1 mM, without pre-incubation, 2nd value column, head not printed
  % of phagocytosed sperm: 22%
[1]; 1 mM, without pre-incubation, 3rd value column, head not printed
  % of phagocytosed sperm: 18%
[1]; 2 mM, preincubated 30 min. at 38° C., phagocytosis time 15 min
  % of phagocytosed sperm: 22%
[1]; 2 mM, preincubated 30 min. at 38° C., phagocytosis time 30 min
  % of phagocytosed sperm: 15%
[1]; 2 mM, preincubated 30 min. at 38° C., phagocytosis time 60 min
  % of phagocytosed sperm: 29%
[1]; 2 mM, preincubated 30 min. at 38° C., phagocytosis time 90 min
  % of phagocytosed sperm: 20%
[1]; [4]
  % phagoc. sperm: 48%
  inhibition at 200 µM: 9%
[1]; [5]
  % phagoc. sperm: 73%
  inhibition at 200 µM: 4%
[1]; [6]
  % phagoc. sperm: 75%
  inhibition at 200 µM: 3%
[1]; [7]
  % phag. Sperm: 29%
  inhibition at 500 µM: 38%
[1]; [8]
  % phag. Sperm: 28%
  inhibition at 500 µM: 56%
[1]; [9]
  % phag. Sperm: 42%
  inhibition at 500 µM: 33%
[1]; [10]
  % phagoc. sperm: 40%
  inhibition at 500 µM: 25%
[1]; [11]
  % phagoc. sperm: 67%
  inhibition at 500 µM: 12%
[1]; [12]
  % phagoc. sperm: 68%
  inhibition at 500 µM: 12%
[1]; [13]
  % phag. Sperm: 14%
  inhibition at 1000 µM: 70%
[1]; [14]
  % phag. Sperm: 26%
  inhibition at 1000 µM: 59%
[1]; [15]
  % phag. Sperm: 24%
  inhibition at 1000 µM: 62%
[1]; [16]
  % phagoc. sperm: 29%
  inhibition at 1000 µM: 45%
[1]; [17]
  % phagoc. sperm: 58%
  inhibition at 1000 µM: 24%
[1]; [18]
  % phagoc. sperm: 62%
  inhibition at 1000 µM: 19%
[1]; [19]
  % phag. Sperm: 9%
  inhibition at 2000 µM: 81%
[1]; [20]
  % phag. Sperm: 17%
  inhibition at 2000 µM: 73%
[1]; [21]
  % phag. Sperm: 21%
  inhibition at 2000 µM: 67%
[1]; [22]
  % phagoc. sperm: 28%
  inhibition at 2000 µM: 47%
[1]; [23]
  % phagoc. sperm: 51%
  inhibition at 2000 µM: 33%
[1]; [24]
  % phagoc. sperm: 56%
  inhibition at 2000 µM: 27%
[1]; [25]
  % phag. Sperm: 32%
  inhibition at 1000 µM: 43%
[1]; [26]
  % phag. Sperm: 45%
  inhibition at 1000 µM: 37%
[1]; [27]
  % phag. Sperm: 56%
  inhibition at 1000 µM: 29%
[1]; Exp. 4, caffeine added to the semen extender the day before use
  phagocytosis of sperm, in words: inhibits phagocytosis after one day
[1]; Exp. 5, 1 mM
  phagocytosis of sperm by PMN in vitro, in words: reduced the phagocytosis of sperm by PMN in vitro
[2]; Exp. 1, after adding active compound and pre-incubation 30 min. at 38° C.
  % motile sperm: 60%
[2]; Exp. 2, 0.2 mM, after adding active compound, without pre-incubation
  % NAR: 84%
[2]; Exp. 3, 1 mM, after pre-incubation of sperm 30 min. at 38° C.
  % motile sperm: 65%
[3]
  % fertilized oocytes, in words: tended to be higher
